Source: US20250213736A1, “SCISSION-ENHANCED NUCLEAR IMAGING AND TREATMENT” (The General Hospital Corporation, priority 2022, published 2025)

Experiment: LCMS analysis of DOTA-TCO-NHS linker immolation after Tz treatment in PBS (pH 7.4)
Type: physicochemical
Conditions: PBS with tetrazine (Tz-amine) added; 100 μM DOTA linker treated with 10 mM Tz-amine, PBS pH 7.4, LCMS; read-out: kinetics of linker immolation T1/2
Protocol: FIG. 6A contains line plots showing LCMS analysis of DOTA-TCO-NHS with varying ratios of HK-Tz added in PBS (pH 7.4). DOTA-TCO-NHS was synthesized as described in FIG. 3C, Characterized by NMR and then subjected to Tz treatment. Aliquots of 100 μM DOTA linker were treated with 10 mM Tz-amine and analyzed by LCMS after 30 min and 3 hours to determine the percentage of intact linker remaining. Shown are the kinetics of linker immolation (T1/2 12 min).

half-life at 100 μM: 12 min
Compound: CN(CC(=O)NCCCNC(=O)CCOCCOCCOCCOCCC(=O)ON1C(=O)CCC1=O)C(=O)OC1/C=C/C(OC(=O)N(C)CC(=O)NCCCNC(=O)CN2CCN(CC(=O)O)CCN(CC(=O)O)CCN(CC(=O)O)CC2)CCCC1 (stereo not shown) [DOTA-TCO-NHS]
